Assay results published in paper PMC12846068, “Insights into Transport Function of the Murine Organic Anion-Transporting Polypeptide OATP1B2 by Comparison with Its Rat and Human Orthologues” (Toxics, 2025).
Entries after “also recorded” stand apart in the source; their conditions may differ. Read-outs that look alike come from different tables or passages of the source.

Columns and labels:
[1] = target: T1, mOATP1B2 (Mus musculus, UniProt Q9JJL3); assay: cis-inhibition of mOATP1B2-mediated E1S or TCA uptake in HEK293 cells; type: cell-based
T1 construct: The full-length mOATP1B2 and rOATP1B2 consist of 689 and 678 amino acids
T1 sequence (Q9JJL3 1-689): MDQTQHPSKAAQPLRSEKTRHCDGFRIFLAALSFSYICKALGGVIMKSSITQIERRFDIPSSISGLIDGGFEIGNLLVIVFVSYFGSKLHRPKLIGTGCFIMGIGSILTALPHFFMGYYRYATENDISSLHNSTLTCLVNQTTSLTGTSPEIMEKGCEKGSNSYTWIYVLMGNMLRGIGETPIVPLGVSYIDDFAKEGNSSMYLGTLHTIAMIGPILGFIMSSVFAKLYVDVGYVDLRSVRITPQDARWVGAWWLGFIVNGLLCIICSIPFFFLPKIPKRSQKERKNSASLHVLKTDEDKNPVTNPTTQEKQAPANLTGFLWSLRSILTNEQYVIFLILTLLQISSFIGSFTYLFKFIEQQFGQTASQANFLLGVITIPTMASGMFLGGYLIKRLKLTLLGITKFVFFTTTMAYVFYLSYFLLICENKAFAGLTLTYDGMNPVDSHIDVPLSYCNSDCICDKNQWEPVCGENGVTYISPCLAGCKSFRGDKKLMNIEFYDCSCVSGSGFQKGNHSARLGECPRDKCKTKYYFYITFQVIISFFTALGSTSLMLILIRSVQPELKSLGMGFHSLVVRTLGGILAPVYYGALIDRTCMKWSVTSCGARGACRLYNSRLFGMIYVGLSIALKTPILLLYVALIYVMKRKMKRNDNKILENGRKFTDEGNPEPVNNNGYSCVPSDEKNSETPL
Protocol: Inhibition experiments with mOATP1B2 and rOATP2B1 were carried out in triplicate as cis-inhibition. […] Inhibitory effects were calculated as a percentage of the net-uptake rates. […] The means ± average deviation (AD, for N = 2) were calculated from two experiments on two different days. The significance as a p-value was calculated using Student's t-test in Microsoft Excel.

[2] = target: T2, hOATP1B1 (Homo sapiens, UniProt Q9Y6L6); settings: read-out: IC50 for hOATP1B1, cited from earlier work
T2 sequence (Q9Y6L6 1-691): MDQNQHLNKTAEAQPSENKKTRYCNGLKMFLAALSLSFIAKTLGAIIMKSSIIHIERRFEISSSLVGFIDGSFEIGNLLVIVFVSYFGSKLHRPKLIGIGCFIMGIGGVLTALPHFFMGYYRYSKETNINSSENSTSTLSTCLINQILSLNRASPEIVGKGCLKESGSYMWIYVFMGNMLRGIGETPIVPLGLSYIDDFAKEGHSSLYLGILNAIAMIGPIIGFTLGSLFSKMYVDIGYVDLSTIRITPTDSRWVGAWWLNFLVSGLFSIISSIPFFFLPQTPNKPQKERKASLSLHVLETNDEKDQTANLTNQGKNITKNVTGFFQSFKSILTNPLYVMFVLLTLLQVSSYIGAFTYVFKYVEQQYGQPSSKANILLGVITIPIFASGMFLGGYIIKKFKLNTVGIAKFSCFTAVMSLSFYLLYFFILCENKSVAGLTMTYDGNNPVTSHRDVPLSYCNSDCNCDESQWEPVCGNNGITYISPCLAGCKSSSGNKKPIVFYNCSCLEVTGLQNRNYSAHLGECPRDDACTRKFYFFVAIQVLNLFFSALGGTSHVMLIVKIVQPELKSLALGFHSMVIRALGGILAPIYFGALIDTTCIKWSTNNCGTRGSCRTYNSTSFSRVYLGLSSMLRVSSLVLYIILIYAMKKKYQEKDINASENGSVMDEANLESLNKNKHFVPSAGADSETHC

[3] = target: T3, hOATP1B3 (Homo sapiens, UniProt Q9NPD5); settings: read-out: IC50 for OATP1B3; cited from earlier work
T3 sequence (Q9NPD5 1-702): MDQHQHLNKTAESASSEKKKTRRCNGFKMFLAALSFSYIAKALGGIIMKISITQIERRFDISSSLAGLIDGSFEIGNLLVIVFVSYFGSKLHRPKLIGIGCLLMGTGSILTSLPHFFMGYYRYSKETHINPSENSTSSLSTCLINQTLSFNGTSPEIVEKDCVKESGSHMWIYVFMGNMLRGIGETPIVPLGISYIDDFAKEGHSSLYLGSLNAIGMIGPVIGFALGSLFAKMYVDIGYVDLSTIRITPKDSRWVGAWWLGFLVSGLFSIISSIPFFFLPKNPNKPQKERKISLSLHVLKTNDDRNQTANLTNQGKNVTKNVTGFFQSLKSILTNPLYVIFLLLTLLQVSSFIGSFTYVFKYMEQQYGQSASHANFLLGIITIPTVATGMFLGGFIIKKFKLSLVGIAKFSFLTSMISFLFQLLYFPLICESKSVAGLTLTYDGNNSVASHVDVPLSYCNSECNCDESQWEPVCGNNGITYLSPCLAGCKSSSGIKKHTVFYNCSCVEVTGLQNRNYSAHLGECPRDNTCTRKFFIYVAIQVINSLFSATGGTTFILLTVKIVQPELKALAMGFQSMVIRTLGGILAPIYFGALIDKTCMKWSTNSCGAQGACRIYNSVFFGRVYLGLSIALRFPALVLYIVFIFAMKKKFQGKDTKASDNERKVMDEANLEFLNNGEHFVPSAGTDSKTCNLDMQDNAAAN

[4] = target: T2, hOATP1B1; design: expressed in transfected cells; host or cells: HEK-293, stably transfected; settings: read-out: Km as substrate of hOATP1B1; cited from earlier work
[5] = target: T3, hOATP1B3; design: expressed in transfected cells; host or cells: HEK-293, stably transfected; settings: read-out: Km as substrate of hOATP1B3; cited from earlier work
[6] = HEK293, 10 µM drug, 1 µM [3H]-E1S, 1 min, read-out: Inhibitory effect on mOATP1B2-mediated E1S uptake
[7] = HEK293, read-out: Inhibitory effect on mOATP1B2-mediated TCA uptake, 10 µM drug, 1 µM [3H]-TCA, 1 min
[8] = HEK293, read-out: Inhibitory effect on mOATP1B2-mediated substrate uptake (summary over E1S and TCA), 10 µM drug, substrates E1S and TCA not separated

Row | inhibition at 10 µM [1, 6] | inhibition at 10 µM [1, 7] | inhibition at 10 µM [1, 8] | SMILES | other results
1 | 44% | 53% | ≥ 50% | CO[C@H]1/C=C/O[C@@]2(C)Oc3c(C)c(O)c4c(O)c(c(/C=N/N5CCN(C)CC5)c(O)c4c3C2=O)NC(=O)/C(C)=C\C=C\[C@H](C)[C@H](O)[C@@H](C)[C@@H](O)[C@@H](C)[C@H](OC(C)=O)[C@@H]1C [Rifampicin, rifampicin] | IC50 ([1]; 1 µM [3H]-E1S, 1 min, read-out: IC50, mOATP1B2-mediated E1S uptake): 9.6 µM; difference in inhibition between mOATP1B2 and rOATP1B2 ([1]; 10 µM drug): > 30%; IC50 ([1]; IC50, mOATP1B2-mediated TCA uptake, 1 µM [3H]-TCA, 1 min): 7.7 µM
2 | 41% | 29% | < 50% | CC(=O)N1CCN(c2ccc(OCC3COC(Cn4ccnc4)(c4ccc(Cl)cc4Cl)O3)cc2)CC1 (stereo not drawn) [Ketoconazole, ketoconazole] | IC50 ([2]; estradiol-17β-glucuronide as substrate): 1.8 µM
3 | 69% | 54% | 54 to 82% | CCCCC1(CCCC)CN(c2ccccc2)c2cc(SC)c(OCC(=O)N[C@@H](C(=O)N[C@@H](CC)C(=O)O)c3ccc(O)cc3)cc2S(=O)(=O)N1 [Odevixibat, odevixibat] | –
4 | 6% | -2% | – | Clc1ccccc1C(c1ccccc1)(c1ccccc1)n1ccnc1 [Clotrimazole, clotrimazole] | Inhibitory effect on mOATP1B2-mediated substrate uptake (summary over E1S and TCA) ([1]; 10 µM drug, substrates E1S and TCA not separated): no inhibitory properties; also recorded: did not inhibit; IC50 [2]: 9 µM
5 | 12% | 32% | < 50% | CC(C)CN(C[C@@H](O)[C@H](Cc1ccccc1)NC(=O)O[C@H]1CCOC1)S(=O)(=O)c1ccc(N)cc1 [Amprenavir, amprenavir] | IC50 ([2]; ref Karlgren et al. (2012) [21]): 16.8 µM; IC50 [3]: 19.1 µM
6 | 50% | 52% | ≥ 50% | CC(C)c1nc(N(C)S(C)(=O)=O)nc(-c2ccc(F)cc2)c1/C=C/[C@@H](O)C[C@@H](O)CC(=O)O [Rosuvastatin, rosuvastatin] | Km [4]: 0.8 µM; Km [5]: 14.2 µM
